Data as given in US5057512A, “3-amino-2-oxo-azetidine-1-sulfonic acids” (Uclaf; Roussel, priority 1981, dated 1991).

What was measured:
Assay in all cases: M.I.C., dilutions in liquid medium
Type in all cases: cell-based
[1] = system: Salmonella typhimurium 420; conditions: Salmonella enterica, 37° C.
Procedure: (§1) A. Activity in Vitro-Method of Dilutions in Liquid Medium
(§2) A series of tubes was prepared in which the same amount of sterile nutritive medium was distributed and there was distributed in each tube increasing amounts of the test product. Then, each tube was inoculated with a bacterial strain and after incubation for twenty-four or forty-eight hours in an oven at 37° C., the inhibition of the growth was evaluated by trans-illumination to determine the minimum inhibiting concentrations (M.I.C.), expressed in μg/ml.

[2] = system: Escherichia Coli Resistant to Gentamycine Tobramycine R55 123 D; conditions: 37° C.
Procedure: as §1, §2

[3] = system: Klebsiella Pneumoniae Exp. 52145; conditions: Klebsiella pneumoniae, 37° C.
Procedure: as §1, §2

Enterobacter Cloacae 681 = conditions: 37° C.
Procedure: as §1, §2

[4] = system: Escherichia Coli Sensitive to Tetracycline 7624; conditions: 37° C.
Procedure: as §1, §2

[5] = system: Klebsiella Pneumoniae 2536 Resistant Gentamycine; conditions: 37° C.
Procedure: as §1, §2

[6] = system: Escherichia Coli Resistant to Tetracycline AT CC 11 303; conditions: 37° C.
Procedure: as §1, §2

[7] = system: Proteus vulgaris (indol +) A 232; conditions: Proteus vulgaris, 37° C.
Procedure: as §1, §2

[8] = system: Proteus mirabilis (indol -) A 235; conditions: Proteus mirabilis, 37° C.
Procedure: as §1, §2

Providencia Du 48 = conditions: Providencia, DU48, 37° C.
Procedure: as §1, §2

[9] = system: Serratia Resistant to Gentamycine 2 532; conditions: Serratia, 37° C.
Procedure: as §1, §2

Structure (SMILES): CON=C(C(=O)NC1C(=O)N(S(=O)(=O)O)C1CCl)c1csc(N)n1 (mixture of isomers) [Example 1, Racemate of syn isomer of cis 4-chloromethyl-3-[2-(2-amino-4-thiazolyl)-2-methoxyimino-acetamido]-2-oxoazetidine-1-sulfonic acid]
- MIC ([1]; 24 Hr.): 1.25 µg/mL
- MIC ([1]; 48 Hr.): 1.25 µg/mL
- MIC ([2]; 24 Hr.): 0.62 µg/mL
- MIC ([2]; 48 Hr.): 0.62 µg/mL
- MIC ([3]; 24 h): 1.25 µg/mL
- MIC ([3]; 48 h): 2.5 µg/mL
- MIC (Enterobacter Cloacae 681; CLOACAE681, 24 Hr.): 2.5 µg/mL
- MIC (Enterobacter Cloacae 681; CLOACAE681, 48 Hr.): 2.5 µg/mL
- MIC ([4]; 24 Hr.): 1.25 µg/mL
- MIC ([4]; 48 Hr.): 1.25 µg/mL
- MIC ([5]; 24 Hr.): 2.5 µg/mL
- MIC ([5]; 48 Hr.): 2.5 µg/mL
- MIC ([6]; 24 Hr.): 0.16 µg/mL
- MIC ([6]; 48 Hr.): 0.16 µg/mL
- MIC ([7]; 24 Hr.): 0.08 µg/mL
- MIC ([7]; 48 Hr.): 0.08 µg/mL
- MIC ([8]; 24 h): 0.16 µg/mL
- MIC ([8]; 48 h): 0.16 µg/mL
- MIC (Providencia Du 48; 24 Hr.): 0.62 µg/mL
- MIC (Providencia Du 48; 48 Hr.): 0.62 µg/mL
- MIC ([9]; 24 h): 5 µg/mL
- MIC ([9]; 48 h): 5 µg/mL

Structure (SMILES): NCCON=C(C(=O)NC1C(=O)N(S(=O)(=O)O)C1CCl)c1csc(N)n1 (mixture of isomers) [Example 3, Racemate of syn isomer of cis 4-chloromethyl-3[2(2-amino-4-thiazolyl)-2-(2-aminoethoxy)-imino-acetamido]-2-oxo-azetidine-1-sulfonic acid]
- MIC ([1]; 24 Hr.): 2.5 µg/mL
- MIC ([1]; 48 Hr.): 5 µg/mL
- MIC ([2]; 24 Hr.): 1.2 µg/mL
- MIC ([2]; 48 Hr.): 1.2 µg/mL
- MIC ([3]; 24 h): 5 µg/mL
- MIC ([3]; 48 h): 10 µg/mL
- MIC ([4]; 24 Hr.): 1.2 µg/mL
- MIC ([4]; 48 Hr.): 1.2 µg/mL
- MIC ([5]; 24 Hr.): 2.5 µg/mL
- MIC ([5]; 48 Hr.): 2.5 µg/mL
- MIC ([6]; 24 Hr.): 0.6 µg/mL
- MIC ([6]; 48 Hr.): 0.6 µg/mL
- MIC ([7]; 24 Hr.): 1.2 µg/mL
- MIC ([7]; 48 Hr.): 1.2 µg/mL
- MIC ([8]; 24 h): 0.6 µg/mL
- MIC ([8]; 48 h): 0.6 µg/mL
- MIC (Providencia Du 48; 24 Hr.): 2.5 µg/mL
- MIC (Providencia Du 48; 48 Hr.): 2.5 µg/mL
- MIC ([9]; 24 h): 2.5 µg/mL
- MIC ([9]; 48 h): 5 µg/mL

Structure (SMILES): Nc1nc(C(=NO)C(=O)NC2C(=O)N(S(=O)(=O)O)C2CCl)cs1 (mixture of isomers) [Example 4, Racemate of syn isomer of cis 4-chloromethyl-3-[2-(2-amino-4-thiazolyl)-2-hydroxyimino-acetamido]-2-oxo-azetidine-1-sulfonic acid]
- MIC ([1]; 24 Hr.): 1.2 µg/mL
- MIC ([1]; 48 Hr.): 2.5 µg/mL
- MIC ([2]; 24 Hr.): 0.6 µg/mL
- MIC ([2]; 48 Hr.): 0.6 µg/mL
- MIC ([3]; 24 h): 5 µg/mL
- MIC ([3]; 48 h): 5 µg/mL
- MIC ([4]; 24 Hr.): 0.6 µg/mL
- MIC ([4]; 48 Hr.): 0.6 µg/mL
- MIC ([5]; 24 Hr.): 2.5 µg/mL
- MIC ([5]; 48 Hr.): 2.5 µg/mL
- MIC ([6]; 24 Hr.): 0.6 µg/mL
- MIC ([6]; 48 Hr.): 0.6 µg/mL
- MIC ([7]; 24 Hr.): 0.6 µg/mL
- MIC ([7]; 48 Hr.): 0.6 µg/mL
- MIC ([8]; 24 h): 0.6 µg/mL
- MIC ([8]; 48 h): 1.2 µg/mL
- MIC (Providencia Du 48; 24 Hr.): 0.6 µg/mL
- MIC (Providencia Du 48; 48 Hr.): 1.2 µg/mL
- MIC ([9]; 24 h): 5 µg/mL
- MIC ([9]; 48 h): 5 µg/mL
